Results reported in patent US20070088023A1, “Method of administration for 5-(2-chlorophenyl)-1,2-dihydro-7-fluoro-8-methoxy-3-methyl-oyrazolo[1,4]benzodiazepine” (priority 2005, published 2007).
Like-named read-outs stand apart in the source and are kept apart here.

Experiment: pre-clinical good laboratory practices toxicology, maximum tolerated dose
Set-up: species or system rats
Conditions: rat, in vivo
Description: The starting dose is based on pre-clinical good laboratory practices toxicological results, according to the accepted standards. […] Thus, the maximum tolerated dose equivalent for this trial will be 1/10th of the HED or 1.8 rounded down to 1.5 mg/m^2/day with dose escalation in 1.5 mg/m^2 increments to 30 mg/m^2 or until dose limiting toxicity(s)(DLT) occur.

SMILES: COc1cc2c(cc1F)C(c1ccccc1Cl)=Nc1c(n[nH]c1C)N2 [compound of Formula I, 5-(2-chlorophenyl)-1,2-dihydro-7-fluoro-8-methoxy-3-methyl-pyrazolo[3,4-b][1,4]benzodiazepine]
- MTD (rat MTD 3 mg/kg/day times 6, read-out: HED (human equivalent dose) of the rat maximum tolerated dose): 18 mg/kg/day
- MTD (rats, pre-clinical GLP toxicology, read-out: maximum tolerated dose in rats): 3 mg/kg/day
